Where two headings read alike, the source gives them in different places.
Legend:
[1] = target: human emopamil binding protein and human 7-dehydrocholesterol reductase co-expressing cell membrane (Homo sapiens (Human), UniProt Q15125); assay: hEBP-DHCR7 radioligand filtration binding assay with [3H]-Compound 118A*; conditions: radioligand [3H]-Compound 118A*; HEK293 membrane co-expressing hEBP and DHCR7
In short: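 HEK293 membranes transiently co-expressing hEBP and hDHCR7 (10 μg/well) were incubated with [3H]-Compound 118A* (added at 25 nM) and compounds (8 doses, final 0.06–5000 nM, n=2) for 3 h at 22 °C. Bound radioactivity was read after PEI-treated GF/B filtration. IC50 came from a Hill fit of % inhibition and was converted to Ki.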

[2] = target: human EBP (Homo sapiens (Human), UniProt Q15125); assay: Competition binding assay (SPA) to determine compound affinity to EBP; conditions: read-out: hEBP SPA Ki
Chain of human EBP (Q15125 whole entry): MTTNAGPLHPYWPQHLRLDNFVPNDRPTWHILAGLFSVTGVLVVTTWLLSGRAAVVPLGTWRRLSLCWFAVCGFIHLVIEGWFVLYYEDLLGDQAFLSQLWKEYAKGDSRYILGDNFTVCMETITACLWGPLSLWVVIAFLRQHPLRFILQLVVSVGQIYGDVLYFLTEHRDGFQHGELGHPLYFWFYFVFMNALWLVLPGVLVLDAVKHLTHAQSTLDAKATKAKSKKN
Experimental: Membrane preparation: To examine compound binding affinity to EBP, human EBP was overexpressed in human embryonic kidney 293 cells. Cell pellet was lysed in 10 times weight binding buffer (50 mM Tris, 5 mM MgCl2, 0.1 mM EDTA, 1× protease inhibitor cocktail, pH 7.5) on ice by using a dounce homogenizer. The solution was centrifuged at 25,000 g for 50 min at 4° C. The membrane pellet was re-suspended in binding buffer and run through a 25 5/8 gauge needle. After checking the concentration by Bradford assay, the whole cell membrane solution was adjusted to 20 mg/mL and stored at −80° C.
This binding solution was centrifuged at 400 g for 5 minutes to collect the bead/membrane mixture. After re-suspending the pellet in binding buffer at the same calculated volume with 0.01% BSA (Sigma A1933), the bead/membrane mixture was added in 384-well low-binding surface plate (PerkinElmer Cat #6057480) at 25 i/well. Radioligand at different concentrations with and without the non-radio-labeled same ligand 5 uM (for nonspecific and total signal, respectively) was added to bring final volume to 50 i/well with DMSO concentration at 0.1%. At equilibrium (3 hours after ligand addition), radiometric signal CPM was counted by using a Microbeta2 microplate counter (Perkinelmer).
Competition binding assay to determine compound affinity: The same conditions of the radioligand Kd study were used for compound single dose percentage inhibition and equilibrium dissociation constant Ki examinations, except 50 nL compound DMSO stock was pre-added in 384-well low-binding surface plate (PerkinElmer Cat #6057480) by Echo 550 (Labcyte) to reach the final concentration for single dose test at 1 uM, and dose response test from 0.06 nM to 5 uM (8 dose, 5 times dilution). A pre-incubated bead/membrane mixture was added in compound plate at 0.3 mg beads and […] membrane per well. […] At equilibrium (3 hours after ligand addition), radiometric signal was counted as described above. The percentage inhibition of compound at each testing concentration was calculated by normalizing each condition's CPM readout to full block (5 uM non-radiolabeled ligand) and non-block (DMSO) control conditions. Compound binding inhibition IC50 was determined by nonlinear regression fitting of percentage inhibition plot against compound concentration. Compound Ki was calculated from the equation Ki=IC50/(1+[L]/Kd), which [L] was radioligand concentration used in assay. All tests had N bigger or equal to 2.

[3] = radioligand [3H]-Ifenprodil 10 nM, Ki=IC50/(1+[L]/Kd), HEK293 membrane

Chain of human emopamil binding protein and human 7-dehydrocholesterol reductase co-expressing cell membrane (Q15125 whole entry): as above

## C[C@@H](CN1CCC2(CC1)CS(=O)(=O)C2)Oc1ccc(F)c(F)c1 (single isomer, unassigned) [221A*]
[1]
  Ki: 25.5 nM
[2]
  Ki: 10 nM

## CC(C)(CN1CC[C@@]2(CCS(=O)(=O)C2)C1)Oc1ccc(C(F)(F)F)cc1 (single isomer, unassigned) [Compound 141A]
[1]
  Ki: 25.6 nM
[2]; [3]
  Ki: 44 nM

## C[C@@H](Cc1cnc(C(F)(F)F)nc1)CN1CCC2(C1)CS(=O)(=O)C2 (single isomer, unassigned) [Compound 145A]
[1]
  Ki: 69.1 nM
[2]; [3]
  Ki: 56 nM

## CC(C)(CN1CCC2(C1)CS(=O)(=O)C2)Oc1ccc(C2CCC2)cc1 [Example 129, 6-(2-(4-Cyclobutylphenoxy)-2-methylpropyl)-2-thia-6-azaspiro[3.4]octane-2,2-dioxide]
[1]
  Ki: 11.8 nM
[2]; [3]
  Ki: 21 nM

## CC(C)(CN1CCC2(C1)CS(=O)(=O)C2)Oc1cnc(C(F)(F)F)nc1 [Example 144, 6-(2-Methyl-2-((2-(trifluoromethyl)pyrimidin-5-yl)oxy)propyl)-2-thia-6-azaspiro[3.4]octane-2,2-dioxide]
[1]
  Ki: 96.6 nM
[2]; [3]
  Ki: 53 nM

## C[C@H](Cc1ccc(C(F)(F)F)cc1)CN1CCC2(C1)CS(=O)(=O)C2 (single isomer, unassigned) [114B*]
[1]
  Ki: 5.85 nM
[2]; [3]
  Ki: 34 nM

## CC(C)(Cc1ccc(C2CCC(F)(F)CC2)c(Cl)c1)CN1CCC2(C1)CS(=O)(=O)C2 [Example 139, 6-(3-(3-Chloro-4-(4,4-difluorocyclohexyl)phenyl)-2,2-dimethylpropyl)-2-thia-6-azaspiro[3.4]octane 2,2-dioxide]
[1]
  Ki: 9.23 nM
[2]; [3]
  Ki: 30 nM

## CC(C)(CN1CCC2(C1)CS(=O)(=O)C2)Oc1cccc(C(F)(F)F)c1 [Example 130, 6-(2-Methyl-2-(3-(trifluoromethyl)phenoxy)propyl)-2-thia-6-azaspiro[3.4]octane-2,2-dioxide]
[1]
  Ki: 13.2 nM
[2]; [3]
  Ki: 16 nM

## O=S1(=O)CCC2(CC1)CN(CCOc1ccc(C(F)(F)F)cc1)C2 [Example 201, 2-(2-(4-(Trifluoromethyl)phenoxy)ethyl)-7-thia-2-azaspiro[3.5]nonane 7,7-dioxide]
[1]
  Ki: 25.7 nM
[2]; [3]
  Ki: 13 nM

## C[C@@H](Cc1ccc(C(F)(F)F)nc1)CN1CCC2(C1)CS(=O)(=O)C2 (single isomer, unassigned) [118A*]
[1]
  Ki: 22.1 nM
[2]; [3]
  Ki: 26 nM

## O=S1(=O)CC2(CCN(CC3(Cc4ccc(C(F)(F)F)nc4)CC3)C2)C1 [Example 157, 6-((1-((6-(Trifluoromethyl)pyridin-3-yl)methyl)cyclopropyl)methyl)-2-thia-6-azaspiro[3.4]octane 2,2-dioxide]
[1]
  Ki: 17.2 nM
[2]; [3]
  Ki: 25 nM

## O=S1(=O)CC2(CCN(CCOc3ccc(C(F)(F)F)nc3)CC2)C1 [Compound 230, 7-(2-((6-(Trifluoromethyl)pyridin-3-yl)oxy)ethyl)-2-thia-7-azaspiro[3.5]nonane 2,2-dioxide]
[1]
  Ki: 749 nM
[2]; [3]
  Ki: 22 nM

## C[C@H](Cc1cnc(C(F)(F)F)nc1)CN1CCC2(CC1)CS(=O)(=O)C2 (single isomer, unassigned) [215B*]
[1]
  Ki: 136 nM
[2]; [3]
  Ki: 25 nM

## CC(C)(CN1CCC2(CC1)CS(=O)(=O)C2)Oc1ccc(C(F)(F)F)cc1 [Example 138, 7-(2-Methyl-2-(4-(trifluoromethyl)phenoxy)propyl)-2-thia-7-azaspiro[3.5]nonane 2,2-dioxide]
[1]
  Ki: 5.04 nM
[2]; [3]
  Ki: 16 nM

## CC(C)(CN1CCC2(C1)CS(=O)(=O)C2)Oc1ccc(C(F)(F)F)nc1 [Example 135, 6-(2-Methyl-2-((6-(trifluoromethyl)pyridin-3-yl)oxy)propyl)-2-thia-6-azaspiro[3.4]octane-2,2-dioxide]
[1]
  Ki: 39.6 nM
[2]; [3]
  Ki: 29 nM

## CC(Cc1ccc(C2CCC2)cc1)CN1CCC2(C1)CS(=O)(=O)C2 (racemic) [Compound 109A, 6-(3-(4-cyclobutylphenyl)-2-methylpropyl)-2-thia-6-azaspiro[3.4]octane 2,2-dioxide]
[1]
  Ki: 12.5 nM
[2]; [3]
  Ki: 32 nM

## COC(Cc1ccc(C(F)(F)F)cc1)CN1CCC2(C1)CS(=O)(=O)C2 (racemic) [Example 143, (S)-6-(2-Methoxy-3-(4-(trifluoromethyl)phenyl)propyl)-2-thia-6-azaspiro[3.4]octane 2,2-dioxide and (R)-6-(2-methoxy-3-(4-(trifluoromethyl)phenyl)propyl)-2-thia-6-azaspiro[3.4]octane 2,2-dioxide]
[1]
  Ki: 12.6 nM
[2]; [3]
  Ki: 27 nM

## C[C@@H](Cc1cnc(C(F)(F)F)nc1)CN1CCC2(CC1)CS(=O)(=O)C2 (single isomer, unassigned) [215A*]
[1]
  Ki: 105 nM
[2]; [3]
  Ki: 21 nM

## C[C@@H](Cc1ccc(C(F)F)cc1)CN1CCC2(C1)CS(=O)(=O)C2 (single isomer, unassigned) [Compound 128A]
[1]
  Ki: 29.6 nM
[2]; [3]
  Ki: 56 nM

## CC(C)(Cc1ccc(C(F)(F)F)nc1)CN1CCC2(C1)CS(=O)(=O)C2 [Example 140, 6-(2,2-Dimethyl-3-(6-(trifluoromethyl)pyridin-3-yl)propyl)-2-thia-6-azaspiro[3.4]octane-2,2-dioxide]
[1]
  Ki: 19.9 nM
[2]; [3]
  Ki: 18 nM

## O=S1(=O)CC2(CCN(CC[C@H](F)c3ccc(C(F)(F)F)cc3)C2)C1 (single isomer, unassigned) [Compound 122B]
[1]
  Ki: 13.7 nM
[2]; [3]
  Ki: 18 nM

## CC(C)(Cc1ccc(C(F)(F)F)nc1)CN1CC[C@@]2(CCS(=O)(=O)C2)C1 (single isomer, unassigned) [Compound 148B]
[1]
  Ki: 28.6 nM
[2]; [3]
  Ki: 32 nM

## O=S1(=O)CC2(CCN(CCOc3ccc(C(F)(F)F)cc3)C2)C1 [Compound 112, 6-(2-(4-(Trifluoromethyl)phenoxy)ethyl)-2-thia-6-azaspiro[3.4]octane-2,2-dioxide]
[1]
  Ki: 13.5 nM
[2]; [3]
  Ki: 28 nM

## CCC(C)(C)c1ccc(CC(C)CN2CCC3(C2)CS(=O)(=O)C3)cc1 (racemic) [Compound 107, 6-(2-Methyl-3-(4-(tert-pentyl)phenyl)propyl)-2-thia-6-azaspiro[3.4]octane 2,2-dioxide]
[1]
  Ki: 10.3 nM
[2]; [3]
  Ki: 23 nM

## C[C@H](Cc1ccnc(C(F)(F)F)c1)CN1CCC2(C1)CS(=O)(=O)C2 (single isomer, unassigned) [Compound 126B]
[1]
  Ki: 67.6 nM
[2]; [3]
  Ki: 120 nM

## CC(C)(CN1CCC2(C1)CS(=O)(=O)C2)Oc1ccc(OC(F)(F)F)cc1 [Example 136, 6-(2-Methyl-2-(4-(trifluoromethoxy)phenoxy)propyl)-2-thia-6-azaspiro[3.4]octane 2,2-dioxide]
[1]
  Ki: 14.2 nM
[2]; [3]
  Ki: 29 nM

## C[C@@H](Cc1ccc(C(F)(F)F)cc1)CN1CCC2(C1)CS(=O)(=O)C2 (single isomer, unassigned) [114A*]
[1]
  Ki: 18.3 nM
[2]; [3]
  Ki: 35 nM

## CC(C)(CN1CCC2(C1)CS(=O)(=O)C2)Oc1cccc(OC(F)(F)F)c1 [Example 131, 6-(2-Methyl-2-(3-(trifluoromethoxy)phenoxy)propyl)-2-thia-6-azaspiro[3.4]octane 2,2-dioxide]
[1]
  Ki: 118 nM
[2]; [3]
  Ki: 31 nM

## CC(C)(CN1CC[C@]2(CCS(=O)(=O)C2)C1)Oc1ccc(C(F)(F)F)cc1 (single isomer, unassigned) [Compound 141B]
[1]
  Ki: 58.4 nM
[2]; [3]
  Ki: 61 nM

## C[C@@H](Cc1ccnc(C(F)(F)F)c1)CN1CCC2(C1)CS(=O)(=O)C2 (single isomer, unassigned) [Compound 126A]
[1]
  Ki: 47.4 nM
[2]; [3]
  Ki: 30 nM
